Laboratory results: US11505574B2, “Modulation of P53 for the treatment of cancer” (THE REGENTS OF THE UNIVERSITY OF CALIFORNIA, priority 2016, dated 2022)
“Also recorded” adds a separate entry of the source.

Key:
[1] = test system: tumor cell colony formation; assay: Tumor cell colony formation assay, cell line not stated (FIGS. 13C, 20D); assay type: cell-based; conditions: complexes with PEP1 (FIG. 13C)
[2] = test system: p53; assay: Western blot for p53 and downstream targets in RKO cells treated with peptides; assay type: cell-based, human; conditions: RKO cells; for p53 expression (Western blot): 300 nM peptide with 6 μM PEP1, 24 hours (FIG. 31A); for p53 and p21 expression after low-dose doxorubicin treatment (Western blot) / p53 protein expression compared to Pep8 (Western blot): 375 nM peptide with 7.5 μM PEP1; for p53 and p21 expression after low-dose doxorubicin treatment (Western blot): 6.25 ng/mL doxorubicin 18 hours (FIG. 34G); for expression of p53 and downstream targets with low-dose doxorubicin (Western blot): complexes of CPPs and peptide plus doxorubicin 6.25 ng/mL (FIG. 19A); for expression of p53 (Western blot): peptide complexed with PEP1 (FIG. 13A); for p53 protein expression compared to Pep8 (Western blot): 18 hours (FIG. 37A)
[3] = test system: MCF7 cells; assay: MCF7 cell colony formation assay (peptides); assay type: cell-based, human; conditions: for MCF7 cell colony formation: 375 nM peptide with 7.5 μg PEP1 (20:1) (FIG. 1B); for inhibition of colony formation by low-dose doxorubicin: MCF7 cells, 375 nM peptide with 7.5 μg PEP1 (20:1) plus 3.125 ng/mL doxorubicin (FIG. 1D); for colony formation in MCF7 cells: complexes of peptide and PEP1 (FIG. 18)
Method: In order to test the effect of the RBM38 and eIF4E peptides on cancer cell colony formation, MCF7 cells were seeded in 6-well plates at a density of 1×10^3 cells per well. The following day, cells were treated with peptides. In order to form stable complexes with PEP1, 100 μl of serum-free DMEM was added to individual Eppendorf tubes. Control (SEQ ID NO:11), RBM38, and eIF4E peptides were added at a concentration of 375 nM and then 7.5 μg of PEP1 was added to each peptide (20:1). The complexes were incubated for 20 minutes at room temperature and then added dropwise to cells. Cell media was changed every three days until colonies were visible. The cells were fixed and then stained with crystal violet.
In order to test the effect of a combination treatment comprising peptides of the present invention and a chemotherapeutic agent on cancer cell colony formation, MCF7 cells were seeded in 6-well plates at a density of 1×10^3 cells per well. The following day, cells were treated with peptides. In order to form stable complexes with PEP1, 100 μL of serum-free DMEM was added to individual Eppendorf tubes. Control, RBM38, eIF4E, and peptide-8 peptides were added at a concentration of 375 nM and then 7.5 μg of PEP1 was added to each peptide (20:1). The complexes were incubated for 20 minutes at room temperature and then added dropwise to cells. 20 minutes after addition of peptide complexes, 3.125 ng/mL doxorubicin was added to the cells. Cell media was changed every three days until colonies were visible. The cells were fixed and then stained with crystal violet.
For the experiments shown in FIG. 34C, MCF7 cells were seeded on a 6-well plate at a seed density of 1×10^3 cells per well. The following day the cells were treated with 5 μM Pen-Ctrl or 5 μM Pen-Pep23. The following day, 6.25 ng/mL doxorubicin was added to the cells for 48 hours. Subsequently, the cell media was changed every 3 days until colonies were visible. The cells were fixed and stained with crystal violet.

[4] = test system: p53; assay: Western blot for p53 and downstream targets in MCF7 cells treated with peptides; assay type: cell-based, human; conditions: for p53 expression (Western blot) / protein expression of p53 and downstream targets p21 and MDM2 (Western blot) / p53 and p21 expression after low-dose doxorubicin treatment (Western blot) / doxorubicin-mediated p53 and p21 upregulation (Western blot) / expression of p53 and downstream targets with low-dose doxorubicin (Western blot) / expression of p53 and downstream targets p21 and MDM2 (Western blot): MCF7 cells; for p53 expression (Western blot): 300 nM peptide with 6 μM PEP1, 24 hours (FIG. 31B); for protein expression of p53 and downstream targets p21 and MDM2 (Western blot): 300 nM peptide with 6 μg PEP1 (20:1 PEP1 to peptide), 18 hours (FIG. 1A); for p53 and p21 expression after low-dose doxorubicin treatment (Western blot): 375 nM peptide with 7.5 μM PEP1, 6.25 ng/mL doxorubicin 18 hours (FIG. 34H); for doxorubicin-mediated p53 and p21 upregulation (Western blot): 375 nM peptide with (20:1) plus 6.25 ng/mL doxorubicin, 18 hours (FIG. 1C); for expression of p53 and downstream targets with low-dose doxorubicin (Western blot): complexes of CPPs and peptide plus doxorubicin 6.25 ng/mL (FIG. 19B); for expression of p53 and downstream targets p21 and MDM2 (Western blot): complexes with PEP1 (FIG. 13B)
[5] = test system: MIA-PaCa-2 pancreatic cancer cells; assay: MIA-PaCa-2 cell colony formation assay (peptides); assay type: cell-based, human; conditions: complexes of peptide and PEP1 (FIG. 18)
Source text: […] […] After colonies formed they were fixed (i.e., using 7:1 MeOH:glacial acetic acid) and stained with crystal violet.

[6] = test system: U20S; assay: U20S cell colony formation assay (FIG. 18); assay type: cell-based, human; conditions: complexes of peptide and PEP1 (FIG. 18)
[7] = test system: p53; assay: Western blot for p53 in MCF7 cells treated with oligonucleotides; assay type: cell-based, human; conditions: MCF7 cells; oligonucleotide 50 nM; 24 hours (FIG. 2)
[8] = test system: RKO cells; assay: RKO cell colony formation assay (oligonucleotides); assay type: cell-based; conditions: 5 μM oligonucleotide for 24 hours; versus M3 control (FIG. 30)
Source text: Another strategy is to use oligonucleotides to block the interaction between RBM38 and the 3′ untranslated region (UTR) of p53 in order to modulate p53 translation (FIG. 26). To this end, a region of the p53 3′ UTR where RBM38 interacts (FIG. 27) was identified (SEQ ID NO:15) and several oligonucleotides having complementarity to this sequence (e.g., SEQ ID NOS:16-21) were designed.

**Q.** Which “tumor cell colony formation” value [1] does the source give for “QYPPATYDQYPYAASPATAASFVGYSYPAAVPQALSAAAP [RBM38]” here?
**A.** successful at inhibiting tumor cell colony formation

**Q.** What about the “p53 expression (Western blot)” value [2] of the same sequence?
**A.** able to increase p53 expression

**Q.** And the “p53 and p21 expression after low-dose doxorubicin treatment (Western blot)” value (from here on “p53 and p21 expression”) [2]?
**A.** further increased p53 and p21 expression

**Q.** And the “expression of p53 and downstream targets with low-dose doxorubicin (Western blot)” value [2]?
**A.** increased the expression of p53 and downstream targets

**Q.** What about the “expression of p53 (Western blot)” value [2] of the same sequence?
**A.** expression of p53 was increased relative to controls

**Q.** What about the “MCF7 cell colony formation” value [3] of the same sequence?
**A.** able to inhibit MCF7 cell colony formation; also recorded: able to suppress colony formation of MCF7 breast cancer cells; also recorded: decreased colony formation

**Q.** What about the “inhibition of colony formation by low-dose doxorubicin” value [3] of the same sequence?
**A.** enhanced the inhibition of colony formation by low-dose doxorubicin

**Q.** And the “p53 expression (Western blot)” value [4]?
**A.** able to increase p53 expression

**Q.** What about the “protein expression of p53 and downstream targets p21 and MDM2 (Western blot)” value [4] of the same sequence?
**A.** increased protein expression of p53 and the downstream targets p21 and mouse double minute 2 homolog (MDM2); also recorded: increasing p53 protein levels; also recorded: induced p53 and downstream targets p21 and MDM2

**Q.** What about the “p53 and p21 expression” value [4] of the same sequence?
**A.** further increased p53 and p21 expression

**Q.** What about the “doxorubicin-mediated p53 and p21 upregulation (Western blot)” value [4] of the same sequence?
**A.** enhanced the effect of doxorubicin-mediated p53 and p21 upregulation; also recorded: able to enhance the induction of p53 and p21

**Q.** And the “expression of p53 and downstream targets with low-dose doxorubicin (Western blot)” value [4]?
**A.** increased the expression of p53 and downstream targets

**Q.** What about the “expression of p53 and downstream targets p21 and MDM2 (Western blot)” value [4] of the same sequence?
**A.** expression of p53 and downstream targets p21 and MDM2 was increased

**Q.** IGYQSHADTATKSGSTTKNRFVV [eIF4E] was tested. Which “tumor cell colony formation” value [1] did it give?
**A.** successful at inhibiting tumor cell colony formation

**Q.** And the “p53 expression (Western blot)” value [2]?
**A.** able to increase p53 expression

**Q.** And the “p53 and p21 expression” value [2]?
**A.** further increased p53 and p21 expression

**Q.** And the “expression of p53 and downstream targets with low-dose doxorubicin (Western blot)” value [2]?
**A.** increased the expression of p53 and downstream targets

**Q.** And the “expression of p53 (Western blot)” value [2]?
**A.** expression of p53 was increased relative to controls

**Q.** What about the “MCF7 cell colony formation” value [3] of the same sequence?
**A.** able to inhibit MCF7 cell colony formation; also recorded: able to suppress colony formation of MCF7 breast cancer cells; also recorded: decreased colony formation

**Q.** What about the “inhibition of colony formation by low-dose doxorubicin” value [3] of the same sequence?
**A.** enhanced the inhibition of colony formation by low-dose doxorubicin; also recorded: led to decreased colony formation

**Q.** What about the “colony formation in MCF7 cells” value [3] of the same sequence?
**A.** inhibited colony formation

**Q.** What about the “colony formation in MIA-PaCa-2 pancreatic cancer cells” value [5] of the same sequence?
**A.** inhibited colony formation

**Q.** What about the “colony formation in U20S cells” value [6] of the same sequence?
**A.** inhibited colony formation

**Q.** And the “p53 expression (Western blot)” value [4]?
**A.** able to increase p53 expression

**Q.** And the “protein expression of p53 and downstream targets p21 and MDM2 (Western blot)” value [4]?
**A.** increased protein expression of p53 and the downstream targets p21 and mouse double minute 2 homolog (MDM2); also recorded: increasing p53 protein levels; also recorded: induced p53 and downstream targets p21 and MDM2

**Q.** What about the “p53 and p21 expression” value [4] of the same sequence?
**A.** further increased p53 and p21 expression

**Q.** What about the “doxorubicin-mediated p53 and p21 upregulation (Western blot)” value [4] of the same sequence?
**A.** enhanced the effect of doxorubicin-mediated p53 and p21 upregulation; also recorded: able to enhance the induction of p53 and p21

**Q.** What about the “expression of p53 and downstream targets with low-dose doxorubicin (Western blot)” value [4] of the same sequence?
**A.** increased the expression of p53 and downstream targets

**Q.** And the “expression of p53 and downstream targets p21 and MDM2 (Western blot)” value [4]?
**A.** expression of p53 and downstream targets p21 and MDM2 was increased

**Q.** What does the source list for “AAAAAAGAAAAAAAA (chemistry not given here) [14A/G]”?
**A.** level of p53 (Western blot) [7]: level of p53 was increased; RKO tumor cell colony formation [8]: inhibited RKO tumor cell colony formation after 24 hours more than the M3 control oligonucleotide did

**Q.** With “AAAGAAAAAAGAAAA (listed as DNA, chemistry not given here) [18T-AS-15]” as the sequence, how does the “level of p53 (Western blot)” value [7] read?
**A.** level of p53 was increased

**Q.** Which results are given for “AAAAAAAAAAAAAAAAAA (listed as DNA, chemistry not given here) [15A]”?
**A.** level of p53 (Western blot) [7]: level of p53 was increased; RKO tumor cell colony formation [8]: inhibited RKO tumor cell colony formation after 24 hours more than the M3 control oligonucleotide did

**Q.** With “AAAGAAAAAAGAAAAAAAAAAAAAAAAAA (listed as DNA, chemistry not given here) [18T-AS-29]” as the sequence, how does the “level of p53 (Western blot)” value [7] read?
**A.** level of p53 was increased

**Q.** Which “level of p53 (Western blot)” value [7] does the source give for “AAAGAAAAAAGAAAAAAAA (listed as DNA, chemistry not given here) [18T-AS-19]” here?
**A.** level of p53 was increased

**Q.** How did the “p53 protein expression compared to Pep8 (Western blot)” value [2] turn out when YPYAAKPA [Pep8-SK, Pep8 mutant] was run?
**A.** stronger ability to induce p53 protein expression compared to Pep8

**Q.** What does the source list for YPYAASPA [peptide-8]?
**A.** p53 protein levels (Western blot) ([2]; 50 nM peptide with 1 μM PEP1, 18 hours (FIG. 32A)): could induce p53 protein levels; p53 and p21 expression after low-dose doxorubicin treatment (Western blot) [2]: further increased p53 and p21 expression; expression of p53 and downstream targets with low-dose doxorubicin (Western blot) [2]: increased the expression of p53 and downstream targets; inhibition of colony formation by low-dose doxorubicin [3]: enhanced the inhibition of colony formation by low-dose doxorubicin; also recorded: led to decreased colony formation; colony formation in MCF7 cells [3]: inhibited colony formation; colony formation in MIA-PaCa-2 pancreatic cancer cells [5]: inhibited colony formation; colony formation in U20S cells [6]: inhibited colony formation; induction of p53 (Western blot) ([4]; MCF7 cells 375 nM, 50 nM or 150 nM, RKO cells 150 nM (FIG. 16)): stronger induction of p53 than the longer RBM38 and eIF4E peptides; also recorded: increases p53 expression; p53 and p21 expression after low-dose doxorubicin treatment (Western blot) [4]: further increased p53 and p21 expression; doxorubicin-mediated p53 and p21 upregulation (Western blot) [4]: enhanced the effect of doxorubicin-mediated p53 and p21 upregulation; also recorded: able to enhance the induction of p53 and p21; expression of p53 and downstream targets with low-dose doxorubicin (Western blot) [4]: increased the expression of p53 and downstream targets

**Q.** Which “level of p53 (Western blot)” value [7] does the source give for “AAAGAAAAAAGAAAAAAAAAAAAAAAAAAGAAAAAGAA (listed as DNA, chemistry not given here) [18T-AS]” here?
**A.** level of p53 was increased

**Q.** Which “p53 protein expression compared to Pep8 (Western blot)” value [2] does the source give for YPYAARPA [Pep8-SR, Pep8 mutant] here?
**A.** stronger ability to induce p53 protein expression compared to Pep8
